Reference: patent publication US20210343422A1, “METHODS FOR DYNAMIC MODELING AND CLOSED-LOOP CONTROL OF INFLAMMATION” (Georgia Tech Research Corporation, priority 2018, published 2021)
“Also recorded” adds a separate entry of the source.

Experiments:
[1] = system: RAW 264.7 murine immortalized macrophages; assay: iNOS expression by immunocytochemistry (ICC), normalized to nuclei count; format: cell-based; details: for sensitivity of iNOS response, IFN-γ versus TNF-α as second pro-inflammatory stimulus: FIG. 9
Method: (§1) All studies in this work were performed using RAW 264.7 murine immortalized macrophages (ATCC TIB-71™). Macrophages were expanded, maintained, and cultured in basal macrophage medium, which is comprised of DMEM (Thermo Fisher Scientific; Ser. No. 12/430,062), 10% FBS (Thermo Fisher Scientific; 26140079), and 1% antibiotic/antimycotic (Sigma-Aldrich; A5955).
(§2) Raw 264.7 macrophages were cultured to 70% confluence before conditioning began. Cells were conditioned by addition of medium with lipopolysaccharide (LPS; Sigma-Aldrich; L2880), interferon gamma (IFN-γ; R&D Systems; 485-MI), or interleukin (IL)-4 (PeproTech; 214-14) as indicated.
(§3) Raw 264.7 macrophages were conditioned with LPS or IFN-γ alone to quantify individual stimulus dynamic response, with LPS or IFN-γ sequentially to recover iNOS expression via orthogonal input, or with LPS […] to quantify supra-additivity and model predictive control strategy response. Pre-treatment, 24 hours of IL-4 prior to addition of LPS or IFN-γ, was used to induce an anti-inflammatory, non-nave state for experiments involving hysteretic effects.
For immunocytochemistry (ICC) experiments, macrophages were cultured in 96-well microplates. Macrophages were fixed in 4% PFA solution for 15 minutes and blocked with 5% BSA+3% goat serum in PBS for one hour. Cells were stained with α-iNOS antibody (Cell Signaling Technology; Cat. No. 13120; 1:400) and DAPI for normalization to nuclei count. Cells were imaged at 10× magnification (Zeiss Observer Z1). Image fluorescence was thresholded and total fluorescence above the threshold was normalized to nuclei number.
(§4) ICC and Western blot data were aggregated and iNOS expression for each independent experiment was normalized to the positive control with Raw264.7 cells treated with 1 μg/mL LPS for 24 hours (dynoDataLoad.m). iNOS dynamics plots were generated using the Gramm package for MATlAB. Data at sampled time points (0, 24 48, and 72 hours) were expressed as mean±SEM for separated data (N=38 for LPS single input experiments; N=8 for LPS repeated input experiments; N=8 for LPS cycled input experiments; N=32 for IFN-γ single input experiments; N=16 for IFN-γ repeated input experiments; N=16 for IFN-γ cycled input experiments). To generate interpolation curves data were smoothed using the Savitzky-Golay (sgolay) option in the curve fitting toolbox. Shaded band on curve represents root mean squared (RMS) cross validation error on smoothed data (macrophageDyn_figGenv3.m).

[2] = system: RAW 264.7 murine immortalized macrophages; assay: iNOS expression by quantitative Western blot, normalized to α-tubulin; format: cell-based
Method: as §1, §2
For Western blot experiments, cells were cultured in 6-well plates then lysed using RIPA buffer with PMSF (Sigma-Aldrich), and cOmplete Mini (Sigma-Aldrich). Membranes were probed for α-tubulin (Sigma-Aldrich, Cat. No. T6074; 1:4000) and iNOS (1:1000). Membranes were imaged on a LiCor Odyssey CLx machine and quantified in ImageStudio Lite. iNOS band intensity was normalized to α-tubulin intensity to yield iNOS expression.
as §4

Raw264.7 cells = assay: Arg1 expression for M2 polarization validation; format: cell-based, murine; details: IL-4 pre-conditioning, FIG. 11
Method: as §3
To model Raw264.7 cells starting in a non-nave state, the inventors pre-conditioned macrophages with IL-4 for 24 hours prior to pro-inflammatory stimulation. […] Reference source not found. For each LPS concentration, iNOS expression for non-M2 polarized LPS-only treated cells were divided by iNOS expression values from cell treated with an array of IL-4 concentrations for 24 hours followed by 24 hours of LPS. The matrix of LPS and IL-4 concentrations was interpolated using 3rd order linear least squares, which provided the inverse of the continuous input concentration-dependent attenuation factor γ. […] The M2 driven attenuation of M1 response reflects the systemic immunosuppression that poses a major risk to post-traumatic or surgical injury patients.

[3] = physiologically relevant concentration range

TNF-α
sensitivity of iNOS response, IFN-γ versus TNF-α as second pro-inflammatory stimulus [1, 3]: more sensitive to IFN-γ

lipopolysaccharide [LPS]
duration of iNOS level ([1]; LQG controller input: 24 hours of 20 ng/ml, then 48 hours at 1 μg/ml LPS): sustained this iNOS level through 48 hours, but not through 72 hours
iNOS expression level, of the reference ([1]; LQG controller input: 24 hours of 20 ng/ml, then 48 hours at 1 μg/ml LPS, read at 24 hours): 60%
iNOS expression, peak, of normalized max iNOS ([1]; PI controller input: 40 ng/ml LPS for 24 hours, then 1 μg/ml until 72 hours, read at 24 hours, max = 24 hour level given 1 μg/ml LPS): approximately 70%
iNOS expression, of max ([1]; PI controller input: 40 ng/ml LPS for 24 hours, then 1 μg/ml, read at 48 hours): 50 % max
iNOS response above the high LPS concentration ([1]; above 1 μg/ml LPS): response tapered off
iNOS expression at 72 hours ([1]; combined PI and LQG three-step LPS input strategy): did not keep activation high at 72 hours
iNOS expression dynamics on repeated or cycled LPS stimulation ([1]; multiple administrations of LPS, or 24 hours in control media before LPS re-stimulation): did not alter iNOS expression dynamics; also recorded: not modulated
LPS dose-to-iNOS response relationship ([1]; physiologically relevant concentration range, up to 1 μg/ml LPS): monotonic
time of peak in iNOS expression ([2]; single administration of 1 μg/ml LPS): 24 h
decay of iNOS expression to baseline after the peak ([2]; single administration of 1 μg/ml LPS, LPS not removed): 48 h

B1: interferon gamma (protein, UniProt P01580 23-155, looked up)
Interferon gamma: HGTVIESLESLNNYFNSSGIDVEEKSLFLDIWRNWQKDGDMKILQSQIISFYLRLFEVLKDNQAISNNISVIESHLITTFFSNSKAKKDAFMSIAKFEVNNPQVQRQAFNELIRVVHQLLPESSLRKRKRSRC
notes: interferon gamma (R&D Systems; 485-MI), second orthogonal pro-inflammatory input
temporal iNOS response to IFN-γ alone ([1]; 100 ng/ml IFN-γ alone, FIG. 10): not sustained
iNOS levels after prior LPS input ([1]; 24 hrs of LPS, then IFN-γ delayed or immediately after, FIGS. 4B-4C): robustly increased iNOS levels
effect on LPS-induced iNOS expression (supra-additivity) ([1]; IFN-γ with LPS, concomitantly or in series, through 72 hours): amplifies LPS-induced iNOS expression
iNOS expression in IL-4 pre-treated cells, IFN-γ with LPS versus LPS alone ([1]; lower LPS and higher IL-4 concentrations, FIG. 5B-5C): greater iNOS expression was observed
sensitivity of iNOS response, IFN-γ versus TNF-α as second pro-inflammatory stimulus [1, 3]: more sensitive to IFN-γ

B2: interleukin (IL)-4 (protein, UniProt P07750 21-140, looked up)
Interleukin-4: HIHGCDKNHLREIIGILNEVTGEGTPCTEMDVPNVLTATKNTTESELVCRASKVLRIFYLKHGKTPCLKKNSSVLMELQRLFRAFRCLDSSISCTMNESKSTSLKDFLESLKSIMQMDYS
notes: interleukin-4 (PeproTech; 214-14), used to induce an anti-inflammatory, non-naive state
Arg1 expression (Raw264.7 cells): increased expression of Arg1
iNOS expression after IL-4 pre-conditioning ([1]; IL-4 for 24 hours, then 24 hr of LPS): attenuated expression of iNOS
iNOS protein expression ([2]; IL-4 treatment, FIG. 8, n=2): not expressed
